In PMC12389586, “Anticancer Activity of Paclitaxel-Loaded Mesoporous Silica Nanoparticles in B16F10 Melanoma-Bearing Mice” (Pharmaceutics, 2025):

Tests used:
β-tubulin = test: Confocal staining of β-tubulin and nuclei; type: cell-based; conditions: B16F10 cells, 24 h; PTX 25 µg/mL or equivalent, CUR 200 µg/mL, TPGS 600 µg/mL, SMB7 200 µg/mL
Experimental: B16F10 cells were seeded at a density of 4 × 10^4 cells per well in a 24-well plate and cultured until a confluency of 80% was reached. Once the desired confluency was achieved, the culture medium was replaced with fresh media containing the following respective treatments: control, 200 μg/mL of SMB7, 200 μg/mL of curcumin, 25 μg/mL of PTX, PS (equivalent to 25 μg/mL PTX), PS with curcumin (equivalent to 25 μg/mL PTX + 200 μg/mL curcumin), and PS with TPGS (equivalent to 25 μg/mL PTX + 600 μg/mL TPGS).
Cells were incubated post-treatment for 24 h and then fixed and stained to visualize intracellular structures. DAPI was used for DNA staining to highlight nuclear morphology, and goat anti-Mouse IgG conjugated with FSD 594 was employed for β-tubulin staining to observe microtubule organization. As PTX primarily acts by stabilizing microtubules, fluorescence images were acquired using an LSM700 confocal laser scanning microscope (Carl Zeiss GmbH, Oberkochen, Germany). Confocal images were acquired at 100 × magnification to enhance the visualization of DNA and β-tubulin structures, enabling the assessment of PTX-induced cytoskeletal disruption and apoptosis-related nuclear changes.

B16F10 spheroids = test: Cytotoxicity and PTX accumulation in 3D cultured spheroid; type: cell-based; conditions: for spheroid growth / radius: 5 days, PTX 25 µg/mL or equivalent, CUR 200 µg/mL, TPGS 600 µg/mL, SMB7 200 µg/mL
Experimental: B16F10 cells were seeded at a density of 3 × 10^5 cells per well in an ultra-low attachment 96-well plate to facilitate spheroid formation. Immediately after seeding, the plate was centrifuged at […] for 15 min to promote cell aggregation. Following centrifugation, the spheroids were allowed to stabilize for 24 h before drug treatment. The spheroids were treated with the following conditions and grown for 5 days: control, 200 μg/mL of SMB7, 200 μg/mL of curcumin, 25 μg/mL of PTX, PS (equivalent to 25 μg/mL PTX), PS with curcumin (equivalent to 25 μg/mL PTX + 200 μg/mL curcumin), and PS with TPGS (equivalent to 25 μg/mL PTX + 600 μg/mL TPGS).
During the culture period, the spheroid radius was measured daily to assess tumor growth inhibition across different treatment groups. After five days, the spheroids were harvested, disrupted into a single-cell suspension, and analyzed for intracellular PTX and curcumin concentrations using LC–MS/MS. Additionally, the culture medium was collected from each well and analyzed to quantify the remaining extracellular concentrations of PTX and curcumin, providing further insights into drug uptake and retention within the spheroids.

[1] = Biodistribution in B16F10 melanoma-bearing mice; type: in vivo, C57BL/6 mice; conditions: C57BL/6, mouse, subcutaneous, heart, lung, kidney, pancreas, liver and tumor tissues, read-out: PTX tissue concentration relative to plasma
Experimental: After the final injection, the mice from PTX + CUR, PSC, and PSCT groups were randomly subdivided into two time points (n = 5 for each subgroup; 2 h and 8 h post-administration) for pharmacokinetic and biodistribution analyses. At the designated time points (0.25, 1, and 2 h from the 2 h group; 0.5, 4, and 8 h from the 8 h group), blood samples (approximately 80 µL) were collected from the retro-orbital plexus of mice. For the PTX and CUR analyses, 30 µL of plasma aliquots were stored at −80 °C. At 2 h, the mice were anesthetized, and the organs (heart, lung, liver, kidney, pancreas, and tumor) were harvested, weighed, and homogenized using a MM400 Laboratory Ball Mixer Mill (Retsch, Haan, Germany). Aliquots (50 µL) of 20% tissue homogenates prepared using 10% MeOH were stored at −80 °C for subsequent analyses. […]
The biodistribution of PTX in various mouse tissues was quantified and expressed as a percentage of the injected dose per gram of tissue (%ID/g). […] The following formula was used to calculate the drug concentration in the tissue, which is measured (e.g., ng), normalized to the total injected dose, and further corrected based on the weight of the harvested tissue to standardize drug accumulation across different organs as follows: %ID/g=Drug amount in each organmg/Injected Dose mg×100×1/Organ weight (g) .

[2] = In vitro drug release test (dialysis pouch); type: physicochemical; conditions: over 48 h; SBF pH 7.4, release medium SBF + 0.5% Tween 80
Experimental: The in vitro drug release of PTX from the formulation was measured as follows: PTX and PS (all containing 2 mg PTX) were placed in the cellulose membrane pouch (Snakeskin^TM Dialysis Tubing 10,000 MWCO; Thermo Fisher Scientific Inc.; Waltham, MA, USA), and 5 mL of SBF (pH 7.4) was added inside the cellulose membrane pouch. The cellulose membrane pouch was put into 50 mL of SBF containing 0.5% Tween 80 in a 250 mL beaker and shaken at 100 rpm in a dual-motion shaker (Finepcr; Gunpo-si, Republic of Korea). Samples (100 μL aliquots) were collected for 48 h, and then diluted 100-fold with mobile phase and injected into the LC-MS/MS system to measure the PTX concentration.
In this study, PS in 5 mL SBF was placed in a dialysis pouch, while the exterior release medium consisted of 50 mL of SBF + 0.5% Tween 80. This large external volume and surfactant content allowed the PTX released from the pouch to diffuse into the external medium and remain dissolved.

B16F10 cells [3] = test: Apoptosis analysis by flow cytometry (Annexin V); type: cell-based; conditions: 24 h; equivalent to 25 μg/mL PTX (+200 μg/mL CUR, +600 μg/mL TPGS)
Experimental: B16F10 cells were seeded at a density of 8 × 10^4 cells in a cell culture dish and cultured until a confluency of 80% was reached. Upon reaching the desired confluency, the culture medium was aspirated and replaced with fresh medium containing one of the following treatments: control, PTX (25 μg/mL), PS (equivalent to 25 μg/mL PTX), PSC (equivalent to 25 μg/mL PTX + 200 μg/mL curcumin), and PSCT (equivalent to 25 μg/mL PTX + 200 μg/mL curcumin + 600 μg/mL TPGS).
After 24 h of treatment, the culture supernatant was collected into a 15 mL conical tube. Cells were then detached using 1.5 mL of trypsin, and the resulting cell suspension—including detached cells and debris—was combined with the previously collected medium in the same tube. The samples were centrifuged at 1000 rpm for 3 min, and the supernatant was carefully discarded. The cell pellet was resuspended in 1 mL of DMEM supplemented with 10% FBS and 1% penicillin–streptomycin. Subsequently, 100 μL of the Muse Annexin V and Dead Cell kit (Cytek Biosciences Inc., Fremont, CA, USA) was added to the cell suspension, and the samples were incubated at room temperature in the dark for 20 min. Apoptosis and cell viability were then assessed using the Guava® Muse® Cell Analyzer (Cytek Biosciences Inc., Fremont, CA, USA).

B16F10 cells [4] = test: Cell viability (MTT assay); type: cell-based; conditions: Mus musculus, B16-F10, 48 h exposure, 0–1000 nM PTX or equivalent
Experimental: B16F10 cells were seeded at a density of 4 × 10^4 cells per well in a 96-well plate and incubated at 37 °C in a 5% CO2 atmosphere for 24 h to allow cell attachment and stabilization before drug administration. After 24 h, the medium was replaced with fresh culture media containing various PTX formulations (i.e., PTX, PS, PS with CUR, PS with TPGS, and PS with verapamil) at increasing concentrations (0, 10, 20, 50, 100, 200, 500, and 1000 nM) of PTX or its equivalent amount.
After 48 h of drug exposure, MTT reagent (0.5 mg/mL in PBS, 15 μL) was added to each well, followed by an additional 4 h incubation to allow mitochondrial dehydrogenase enzymes in viable cells to reduce MTT into insoluble formazan crystals. The resulting formazan was then solubilized using 150 μL DMSO, and the absorbance was measured at 592 nm using an ultraviolet (UV) spectrophotometer. Cell viability was calculated relative to the untreated control group. Data were fitted using the inhibitory effect model v=Emax(1−[I]/IC50+[I]) . Emax and IC50 represent uninhibited cell viability (%) and the concentration of PTX (nM) at which half-maximal inhibition occurs. [I] represents the concentration of PTX.

[5] = after 5 days of treatment, equivalent to 25 μg/mL PTX

SMILES	β-tubulin expression (microtubule integrity) (β-tubulin)	spheroid growth / radius (B16F10 spheroids)	Incorporated PTX (B16F10 spheroids; [5]) [%]	PTX concentration (intracellular accumulation in spheroids) (B16F10 spheroids; [5]) [µg/mL]	Kp at 2 h [1]	drug release [2] [%]	early apoptosis (B16F10 cells [3]) [%]	late apoptosis (Late Apop./Dead) (B16F10 cells [3]) [%]	total apoptosis rate (B16F10 cells [3]) [%]	IC50 (B16F10 cells [4]) [nM]
CC(=O)O[C@H]1C(=O)[C@@]2(C)[C@H]([C@H](OC(=O)c3ccccc3)[C@]3(O)C[C@H](OC(=O)[C@H](O)[C@@H](NC(=O)c4ccccc4)c4ccccc4)C(C)=C1C3(C)C)[C@]1(OC(C)=O)CO[C@@H]1C[C@@H]2O [PTX, Paclitaxel]	pronounced decrease in β-tubulin intensity	significantly suppressed the tumor growth of B16F10 spheroids	20.3	5.09 ± 0.16	> 100	6.58	11.5	9.8	21.3	283
COc1cc(/C=C/C(=O)CC(=O)/C=C/c2ccc(O)c(OC)c2)ccc1O [CUR, Curcumin]	moderate reduction in β-tubulin expression	significantly suppressed the tumor growth of B16F10 spheroids	–	–	–	–	–	–	–	–
